Measured values: US10624892B2, “Agent against fungal infections” (priority 2015, dated 2020)

Experiments:
[1] = tested on: Aspergillus niger; assay: Aspergillus pneumonia in immunodeficient mice, aerosol treatment, microbial contamination of the lungs; type: in vivo, white mongrel mice; details: for Number of colonies (in different dilutions), 10^−2: dilution 10^−2, Saburo medium
Method: The studies were conducted on white mongrel mice (females, 6-8 weeks) in Rappolovo (Leningrad region), the quarantine period was 2 weeks. To reproduce aspergillus pneumonia of the mouse, in order to create an immunodeficiency, a cyclophosphamide solution (150 mg/kg) was injected once intraperitoneally. Three days later, the mice were injected hydrocortisone (250 mg/kg), intraperitoneally, once. One day after the hydrocortisone administration the mice were infected with a suspension of Aspergillus niger (approximately 3×10^7 cell/ml) intranasally, under ether anesthesia. On the 5th day after infection, 5 animals from each group were taken to study microbial contamination of the lungs (euthanasia in rodents was performed with an overdose of ether). From the lung tissue, homogenates were prepared in which the titer of Aspergillus genus fungi was determined. Observation over the remaining mice was carried out within 14 days after infection for mortality accounting. The test solutions were injected in an aerosol chamber. In the course of the experiment, the following groups of animals were formed: • 1—spray control (K), 3 identical groups (K1, K2, K3). The animals infected with Aspergillus and receiving an aerosol of isotonic sodium chloride solution. • 2—The associate of 5-[3,5-dichloro-2-hydroxybenzylidene)amino]-4-hydroxy-1H-pyrimidin-2-one salt with 1,2,3,4,5-pentahydroxy-6-methylaminohexane, 3 identical groups (E1-3). The animals infected with Aspergillus and receiving an aerosol of 0.1% of the preparation under study. • 3. Aqueous solution of substance I-1 • 4. Aqueous solution of substance I-2 • 5. Aqueous solution of substance I-3 • 6. Aqueous solution of substance I-4 • 7. Aqueous solution of substance I-5 • 8. Aqueous solution of substance I-6 • 9. Aqueous solution of substance I-7. The animals were placed into aerosol chambers (12 l) for a period of 30 minutes, during which 500 ml of air passed through the lungs. As an aerosol generator, an ultrasonic nebulizer OMRON U1 (Japan) was used. To maintain a constant concentration of the aerosol of the preparation in the chamber, a vortex pneumatic generator in pulsed spraying mode was used to obtain a stable aerosol with a particle size of 3 m. The animals were placed into immobilization containers and exposed to the obtained aerosol for 30 minutes once a day for 3 days, starting from the first day after the infection. From the samples of homogenized lung tissues, a number of successive dilutions were prepared, followed by seeding on to Saburo medium.

[2] = tested on: Candida albicans; assay: Candidamycosis of mammals: intradermal Candida albicans ulceration in rabbits, topical treatment; type: in vivo; details: for Complete cure by day 7: scarring of the lesion by day 7, 0.1% oil (olive oil) solution applied twice a day for 7 days
Method: Rabbits were inoculated intradermally with a suspension of a 48-hour Candida albicans culture at a dose of 10,000 fungal cells in […] of a 0.9% sodium chloride solution. […] For the study, a 0.1% oil (olive oil) solution of the 5-[3,5-dichloro-2-hydroxybenzylidene)amino]-4-hydroxy-1H-pyrimidin-2-one salt associate with 1,2,3,4,5-pentahydroxy-6-methylaminohexane and substance I-3 were prepared. Sterile water was used as the control substance. The duration of treatment was 7 days, starting from the 1st day after ulceration. The preparations were applied with a cotton swab twice a day—in the morning and in the evening. The criterion for mycological cure was the absence of the yeast and mycelial forms of Candida, and the criterion for complete cure was the scarring of the lesion by day 7.

[3] = tested on: Leveillula taurica; assay: Treatment of powdery mildew on begonia tuberosa by spray; type: in vivo, Begonia tuberosa hybridum
Method: The study was carried out on begonia tuberosa (Begonia tuberosa hybridum), infected with powdery mildew. Powdery mildew affects many plants, including trees and shrubs. Powdery mildew affects chrysanthemums, begonias, and roses; it is manifested in appearance of a white, sometimes darkening spew on green parts of plants. The plant disease is transmitted by spores through the air. The test plants were infected with spores of the fungus (Leveillula taurica) and kept until a white spew appeared on the leaves. Three leaves on each plant were infected. After appearance of the spew, the plants of the control group (3 plants) were isolated from the 3 plants treated with a spray, which is an aqueous solution of substance I-3. The treatment was performed once in a day for 3 and 7 days. After completion of the treatment, the observation over the plants was continued for another 3 weeks. During the observation, an increase in the amount of spew representing the fungal mycelium was registered in the control plants and the number of affected leaves increased, on average, to 7-8, while the spew covered the stems of the plants as well.

[4] = cited from earlier work
[5] = lung homogenate, 5th day after infection, aerosol 30 minutes once a day for 3 days

Structure (SMILES) | Number of colonies (in different dilutions), 10^−2 [1, 5] [col] | overall antifungal effectiveness among tested agents ([1]; conclusion from Table 2) | Presence of mycelium of fungi in the smear, 5 day ([2]; 5 day, 0.1% oil (olive oil) solution applied twice a day) | overall effect of treatment ([2]; conclusion from Table 3) | Complete cure by day 7 [2] | increase or spread of the fungus to other parts of the plant ([3]; aqueous solution spray once in a day for 3 and 7 days, observation for another 3 weeks) | growth of the fungi when flushed from the leaf and plated on a nutrient medium ([3]; flush from treated leaf, nutrient medium) | Number of colonies (in different dilutions), 10^−4 ([1]; lung homogenate, 5th day after infection, dilution 10^−4, Saburo medium, aerosol 30 minutes once a day for 3 days) [col] | solubility in oil solutions ([4]; oil solutions) | solubility in water ([4]; water) [%]
Cc1[nH]c(=O)[nH]c(=O)c1N=Cc1ccc([N+](=O)[O-])cc1.[Na] [Substance I-1, 2,4-dioxo-5-(4-nitrobenzylidene)amino-6-methyl-1,3-pyrimidine sodium salt] | 5 |  |  |  |  |  |  |  |  | 
Cc1[nH]c(=O)[nH]c(=O)c1N=Cc1cc(Cl)cc(Cl)c1O.[Na] [Substance I-3, 2,4-dioxo-5-(2-hydroxy-3,5-dichlorobenzylidene) amino-6-methyl-1,3-pyrimidine sodium salt] | 2 | most effective antifungal agent | no growth | positive effect is achieved | Achieved | no increase or spread of the fungus to other parts of the plant was recorded | no growth of the fungi was recorded |  |  | 
CNCC(O)C(O)C(O)C(O)CO.O=c1nc(O)c(N=Cc2cc(Cl)cc(Cl)c2O)c[nH]1 [associate of 5-[3,5-dichloro-2-hydroxybenzylidene)amino]-4-hydroxy-1H-pyrimidin-2-one salt with 1,2,3,4,5-pentahydroxy-6-methylaminohexane, reference compound] | 12 |  |  |  | Absent |  |  | 2 | up to 0.3% | ≤ 0.4
